Laboratory results taken from patent US10426755B2, “Methods for inhibiting cancer cells” (Chang Gung Memorial Hospital, Chiayi, priority 2015, dated 2019).
Entries after “also recorded” stand apart in the source; their conditions may differ.

How the values were obtained:
Assay type in all cases: cell-based
[1] = test system: CCL2 in THP1/DU145 co-culture; experiment: CCL2 ELISA, THP1/DU145 co-culture; settings: DT-treated monocyte/DU145 co-culture medium; 5 or 10 μM DT, 24 hours; FIG. 15 (a)
Experimental: (§1) As illustrated in Example 10, the production of CCL2 was inhibited by DT in both prostate cancer cells and macrophage, the effect of DT on monocyte/cancer cell co-culture and macrophage/cancer cell co-culture was examined using the invasion assay described in Example 9. • (a) THP1 monocytes, Raw264.7 macrophage, monocyte/prostate cancer co-culture and macrophage/prostate cancer co-culture were treated with a vehicle (DMSO), 5 or 10 μM DT for 24 hours, the cultured medium was collected and placed into the lower chamber of a transwell plate. • (b) Prostate cancer cells (PC3, DU145 and 22RV1) were placed in the cell invasion assay). The level of CCL2 in the invasion assay was measured by ELIZA method.

[2] = test system: skp2 and downstream genes in A549 and H460 lung cancer cells; experiment: skp2 and downstream gene mRNA expression, lung cancer cells; settings: various concentrations of DT vs DMSO, FIG. 10 (c)-(f)
Experimental: (§2) It has been reported that skp2 plays an important role in the metastasis of cancer cells. An in vitro evaluation of the effect of DT on prostate cancer cell metastasis was performed, by measuring the mRNA expression of skp2 in the following prostate cancer cell lines: meatstatic DU145 cells (Panels i-j of FIG. 9), hormone therapy resistant and metastatic PC3 cells (Panel h of FIG. 9), and 22RV1 cells (Panels k-l of FIG. 9), A549 lung cancer cells (Panels (c)-(e) of FIG. 10), chemotherapy-resistant/metastatic H460 lung cancer cells (Panels (d) and (f) of FIG. 10), HCT116 colon cancer cells (Panels (g) and (i) of FIG. 10) and MCF7-tamoxifen resistant breast cancer cells (Panels (h) and (j) of FIG. 10) […].
(§3) The cancer cells were treated with DMSO and various concentrations of DT.

[3] = test system: skp2 and downstream genes in HCT116 colon cancer cells; experiment: skp2 and downstream gene mRNA expression, colon cancer cells; settings: various concentrations of DT vs DMSO, FIG. 10 (g), (i)
Experimental: as §2, §3

[4] = test system: tamoxifen-resistant MCF-7 breast cancer cells; experiment: XTT proliferation assay, tamoxifen-resistant MCF-7; settings: 1-3 days, Panel (c) of FIG. 3
Experimental: (§4) The prostate cancer cells were plated at a density of 10^3 or 3×10^3 per well, in a 96-well plate, in a medium containing 10% Fetal bovine serum (FBS) (Gibco®, commercially available from Life Technologies, USA). Once the prostate cancer cells were attached to the culture dish, the 10% FBS medium was replaced with a second 10% FBS medium and each of the prostate cancer cell line was treated with 1, 5, and 10 μM of DT respectively for 1-2 days. The absorbance was measured using XTT assay kit (commercially available from Roche, Switzerland) at 492 nm using an ELISA reader (Bio-Rad Laboratories, USA).
An in vitro evaluation of the effect of DT on the breast cancer cells was performed. The breast cancer cell lines, MDA-MB-231, MCF-7 and tamoxifen-resistant MCF-7 breast cancer cells were obtained from Bioresource Collection and Research Center, Taiwan. The breast cancer cells were cultured in Eagle's Minimum Essential Medium containing 10% charcoal-stripped fetal bovine serum and plated according to the steps in Example 1 and each of the breast cancer cell line was treated with 0 (control), 5, 10 and 20 μM of DT, respectively for 1-3 days. The absorbance was measured using XTT assay kit at 492 nm using an ELISA reader.

[5] = test system: lung cancer cell lines (A549 and chemotherapy-resistant/metastatic H460); experiment: XTT proliferation assay, lung cancer cells; settings: 1-2 days, FIG. 2
Experimental: as §4, with “Laboratories, USA). An in vitro evaluation of the effect of DT, gemcitabine (a chemotherapeutic agent) and etoposide (a chemotherapeutic agent) on the lung cancer cells was performed. The lung cancer cell lines, chemotherapy-resistant/metastatic H460 lung cancer cells (with pleural metastasis) and A549 lung cancer cells, were purchased from Bioresource Collection and Research Center, Taiwan. […] The absorbance was measured using XTT assay kit at 492 nm using an ELISA reader.” for “Laboratories, USA).”

[6] = test system: γ-H2AX and phosphorylated-ATM in A549 and chemotherapy-resistant/metastatic H460 lung cancer cells; experiment: Western blot of DNA damage response proteins, lung cancer cells; settings: various concentrations of DT, vs control vehicle; dose dependent; FIG. 10 (a)-(b)
Experimental: An in vitro evaluation on the damage effect of DT on cancer cells was performed, using prostate cancer cells (metastatic LNCaP and metastatic DU145, hormone therapy resistant and metastatic PC3 and 22RV1) and lung cancer cells (A549 and chemotherapy-resistant/metastatic H460).
Cancer cells were treated with a control vehicle, dihydrotestosterone (DHT), and various concentrations of DT between 6 to 24 hours. Cellular extracts of treated cancer cells were analyzed using Western Blot.

[7] = test system: CCL2 in THP1 cells/22RV1 co-culture; experiment: CCL2 ELISA, THP1/22RV1 co-culture; settings: DT-treated monocyte/22RV1 co-culture medium; 5 or 10 μM DT, 24 hours; FIG. 15 (b)
Experimental: as §1

[8] = test system: lung cancer cells (A549 and chemotherapy resistant/metastatic H460); experiment: Cell migration (wound-healing) assay, lung cancer cells; settings: DT vs control vehicle, 24 h, dose dependent; FIG. 11
Experimental: An in vitro evaluation of the effect of DT on lung cancer cells (A549 and chemotherapy resistant/metastatic H460), prostate cancer cells (metastatic DU145) and colorectal cancer cells (chemotherapy resistant HCT116) invasion and migration was performed, using cell invasion assay and cell migration assay.
Cell Migration Assay: In vitro wound-healing assay was used to assess cell motility in two dimensions. Cancer cells were plated overnight to achieve a subconfluent cell layer in 24-well plates. A scratch was made on the cell layer with a micropipette tip, and cultures were washed twice with serum-free medium to remove floating cells. Cancer cells were incubated in a culture medium containing DT or the control vehicle. Wound healing was visualized by comparing photographs taken at the time of adding the DT/control vehicle and 24 h later. Three experiments were done in quadruplicates.

Cc1cccc2c3c(ccc12)C(=O)C1=C(OCC1C)C3=O (stereo not drawn) [DT, dihydroisotanshinone I]
concentration of CCL2 [1]: significantly reduced | mRNA expression of skp2 and its downstream genes, lung cancer [2]: effectively inhibit mRNA expression of skp2 and its downstream genes; also recorded: reduces skps and its downstream genes, MMP2, MMP9 and E-cadherin | mRNA expression of skp2 and its downstream genes, colorectal cancer [3]: effectively inhibit mRNA expression of skp2 and its downstream genes; also recorded: reduces skps and its downstream genes, MMP2, MMP9 and E-cadherin | dose of DT required for inhibiting tamoxifen-resistant MCF-7 cells [4]: > 1 µM | inhibition of lung cancer cells (proliferation) ([5]; 5, 10 and 20 μM DT, XTT): inhibits the lung cancer cells in a dose dependent fashion | inhibition of lung cancer proliferation, DT compared with gemcitabine and etoposide ([5]; DT 5, 10, 20 μM, gemcitabine hydrochloride and etoposide 10, 20 μM, regardless of the dosage, also H460): more effective than gemcitabine and etoposide in inhibiting lung cancer proliferation | DNA damage response proteins (γ-H2AX and phosphorylated-ATM), lung cancer cells [6]: increase in DNA damage response proteins (γ-H2AX and phosphorylated-ATM); also recorded: increased the DNA damage response proteins (γ-H2AX, phosphorylated-ATM) | concentration of CCL2 [7]: significantly reduced | lung cancer cell migration into the wounded area [8]: reduced metastatic lung cancer cell migration; also recorded: reduced lung cancer cell migration into the wounded area
